Here are results for five sequences from US20240400620A1, “Compositions Containing Coronavirus Proteins and Epitopes” (priority 2021, published 2024).

The assay has as its system activated CD4+ T cells from MA10-infected HLA-DRB1*0101 Ifnar1^−/− mice. In kind it is cell-based.

For TSNFRVQPTESIVRF [S315-329], the “expansion of multifunctional IFNγ+/TNF+ CD4+ T cells” value is reported as “capable of expanding”.
On the same count and under the same terms, the result for VLSFELLHAPATVCG [S512-526] reads “capable of expanding”.
Turning to “GTWLTYTGAIKLDDK (misc_feature - Nucleoprotein; Severe acute respiratory syndrome-related coronavirus) [N328-342]”, the “expansion of multifunctional IFNγ+/TNF+ CD4+ T cells” value is given as “capable of expanding”.
For “RWYFYYLGTGPEAGL (misc_feature - Nucleoprotein; Severe acute respiratory syndrome-related coronavirus) [N107-121]”, the “frequency of IFNγ-producing activated CD4+ T cells compared with unstimulated control cells” value is recorded as “increase was significant”.
Consider LNTLVKQLSSNFGAI [S959-973], for which the “frequency of IFNγ-producing activated CD4+ T cells compared with unstimulated control cells” value was “increase was significant”.
